Source: US8299267B2, “(3-hydroxy-4-amino-butan-2-yl) -3- (2-thiazol-2-yl-pyrrolidine-1-carbonyl) benzamide derivatives and related compounds as beta-secretase inhibitors for treating” (CoMentis, Inc., priority 2007, dated 2012)

Key:
memapsin 2 = memapsin 2 (Homo sapiens, UniProt P56817); assay: Inhibition of memapsin 2 beta-secretase activity toward fluorogenic substrate FS-2; type: biochemical; details: memapsin 2, pH 4, 37° C., 20 minutes pre-incubation, substrate FS-2; read-out: M2Ki
Experimental: Potency of compounds were determined by measurement of their inhibition of memapsin 2 activity toward a fluorescent substrate. Kinetic inhibition experiments were performed using the procedure as described in Ermolieff, et al. (Biochemistry 39:12450-12456 (2000), the teachings of which are incorporated hereby in their entirety). Briefly, assays were performed at pH 4, 37° C., by pre-incubation of memapsin 2 enzyme with compound for 20 minutes. Activity measurements were initiated by addition of a fluorogenic substrate FS-2 (Bachem Americas, Torrance, Calif.) MCA-SEVNLDAEFK-DNP (SEQ ID NO.: 2). The substrate was derived from 10 amino acids of the human amyloid precursor protein (APP), with the Swedish variant amino acids at the beta-secretase cleavage site. The terminal amino acid was modified from arginine to lysine to facilitate derivatization with a functional group for detection by autofluorescence. The amino acid sequence of the “core” peptide of the substrate is SEVNLDAEFK (SEQ ID NO.: 3). The amino terminus was derivatized with (7-methoxycoumarin-4-yl)acetyl (MCA), and the epsilon amine of the lysine side chain of the terminal residue (K in sequence SEVNLDAEFK (SEQ ID NO.: 4)) was derivatized with 2,4-dinitrophenyl (DNP).

[1] = system: Aβ production in Chinese hamster ovary cells that over-express human APP695 with the London and Swedish mutations; assay: Cellular Aβ IC50 determination (Aβ40 sandwich ELISA); type: cell-based; details: Cricetulus griseus; Aβ40 in CHO cells over-expressing human APP695, 24 h incubation
Experimental: The potency of compounds against memapsin 2 activity was determined in a cellular assay of Aβ production. […] Chinese hamster ovary cells that over-express human APP695 with the London and Swedish mutations were seeded in multi-well plates at 10% confluency. Compounds are dissolved in DMSO to concentrations near 1 mM, and diluted into culture media to a final concentration near 4 μM (final 0.4% DMSO). Compounds were diluted serially and applied to cells in multi-well plates 48 h after seeding. Incubation was continued in 5% CO2 at 37° C. for 24 h. Aliquots were removed and assayed for Aβ40 content using a sandwich ELISA (BioSource International). Amount of Aβ40 over the range of concentration of compounds, relative to control incubations, were fit to a 4-parameter IC50 model.

Chain of memapsin 2 (P56817 46-501): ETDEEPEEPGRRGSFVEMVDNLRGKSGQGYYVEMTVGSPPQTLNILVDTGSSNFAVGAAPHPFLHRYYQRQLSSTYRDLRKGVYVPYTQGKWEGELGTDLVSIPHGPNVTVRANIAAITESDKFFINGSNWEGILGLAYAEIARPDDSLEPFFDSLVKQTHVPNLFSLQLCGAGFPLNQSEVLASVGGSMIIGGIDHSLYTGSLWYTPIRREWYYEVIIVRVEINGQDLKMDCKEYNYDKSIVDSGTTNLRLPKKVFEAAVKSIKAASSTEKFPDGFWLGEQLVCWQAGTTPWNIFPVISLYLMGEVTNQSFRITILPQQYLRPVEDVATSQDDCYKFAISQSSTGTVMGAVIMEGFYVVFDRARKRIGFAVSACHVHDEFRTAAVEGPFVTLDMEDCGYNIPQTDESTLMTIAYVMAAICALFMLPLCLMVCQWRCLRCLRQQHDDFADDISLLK

Structure (SMILES)	Ki (memapsin 2) [nM]	IC50 [1] [nM]
COc1cc(C(=O)N[C@@H](Cc2ccccc2)[C@H](O)CN[C@@H](C)c2cccc(OC)c2)cc(C(=O)N2CCC[C@@H]2c2nc(C)cs2)c1 [Compound 20, N-((2S,3R)-3-hydroxy-4-((S)-1-(3-methoxyphenyl)ethylamino)-1-phenylbutan-2-yl)-3-methoxy-5-((R)-2-(4-methylthiazol-2-yl)pyrrolidine-1-carbonyl)benzamide]	< 100	< 300
COc1cccc(CNC[C@@H](O)[C@H](Cc2ccccc2)NC(=O)c2cccc(C(=O)N3CCCC3)c2)c1 [Compound 21, N-((2S,3R)-3-hydroxy-4-(3-methoxybenzylamino)-1-phenylbutan-2-yl)-3-(pyrrolidine-1-carbonyl)benzamide]	> 201	> 501
COc1cccc([C@H](C)NC[C@@H](O)[C@H](Cc2ccccc2)NC(=O)c2cccc(C(=O)N3CCC[C@@H]3c3nc(C)cs3)c2)c1 [Compound 22, N-((2S,3R)-3-hydroxy-4-((S)-1-(3-methoxyphenyl)ethylamino)-1-phenylbutan-2-yl)-3-((R)-2-(4-methylthiazol-2-yl)pyrrolidine-1-carbonyl)benzamide]	< 100	< 300
COC[C@H]1CCCN1C(=O)c1cc(C)cc(C(=O)N[C@@H](Cc2ccccc2)[C@H](O)CNCc2cncc(C(C)C)c2)c1 [Compound 23, N-((2S,3R)-3-hydroxy-4-((5-isopropylpyridin-3-yl)methylamino)-1-phenylbutan-2-yl)-3-((R)-2-(methoxymethyl)pyrrolidine-1-carbonyl)-5-methylbenzamide]	< 100	< 300
Cc1csc([C@H]2CCCN2C(=O)c2cccc(C(=O)N[C@@H](Cc3ccccc3)[C@H](O)CNCc3cc(O)cc(C(C)C)c3)c2)n1 [Compound 24, N-((2S,3R)-3-hydroxy-4-(3-hydroxy-5-isopropylbenzylamino)-1-phenylbutan-2-yl)-3-((R)-2-(4-methylthiazol-2-yl)pyrrolidine-1-carbonyl)benzamide]	< 100	< 300
Cc1csc([C@H]2CCCN2C(=O)c2cc(C(=O)N[C@@H](Cc3ccccc3)[C@H](O)CNCc3cncc(C(C)C)c3)cc(-c3ncco3)c2)n1 [Compound 25, N-((2S,3R)-3-hydroxy-4-((5-isopropylpyridin-3-yl)methylamino)-1-phenylbutan-2-yl)-3-((R)-2-(4-methylthiazol-2-yl)pyrrolidine-1-carbonyl)-5-(oxazol-2-yl)benzamide]	< 100	< 300
Cc1csc([C@H]2COCN2C(=O)c2cccc(C(=O)N[C@@H](Cc3ccccc3)[C@H](O)CNCc3cccc(C(F)(F)F)c3)c2)n1 [Compound 26, N-((2S,3R)-3-hydroxy-1-phenyl-4-(3-(trifluoromethyl)benzylamino)butan-2-yl)-3-((R)-4-(4-methylthiazol-2-yl)oxazolidine-3-carbonyl)benzamide]	< 100	< 300
Cc1csc([C@H]2CCCN2C(=O)c2cncc(C(=O)N[C@@H](Cc3ccccc3)[C@H](O)CNCc3cncc(C(C)C)c3)c2)n1 [Compound 27, N-((2S,3R)-3-hydroxy-4-((5-isopropylpyridin-3-yl)methylamino)-1-phenylbutan-2-yl)-5-((R)-2-(4-methylthiazol-2-yl)pyrrolidine-1-carbonyl)nicotinamide]	< 100	< 300
Cc1csc([C@H]2CCCN2C(=O)c2cc(C(=O)N[C@@H](Cc3ccccc3)[C@H](O)CNCc3cccc(C(F)(F)F)c3)cc(-c3ncco3)c2)n1 [Compound 28, N-((2S,3R)-3-hydroxy-1-phenyl-4-(3-(trifluoromethyl)benzylamino)butan-2-yl)-3-((R)-2-(4-methylthiazol-2-yl)pyrrolidine-1-carbonyl)-5-(oxazol-2-yl)benzamide]	< 100	< 300
